In US11324728B2, “Dosing regimens for the treatment of fungal infections” (Seren Pharmaceuticals Inc., priority 2017, dated 2022):
Where “and” joins values, the source holds several entries; their conditions need not be identical. Equal entries are not always repeated.

Columns and labels:
[1] = Safety: adverse events and laboratory tests; format: in vivo, human
Experimental: (§1) A Phase II clinical pharmacology study was conducted in subjects with onychomycosis of the toenail. The study investigated the pharmacokinetics, efficacy and safety of three different dosing regimens of fosravuconazole. […] The three treatment groups were as follows: • a.
The safety endpoints were: (1) adverse events (AEs); (2) adverse reactions; and (3) laboratory tests.

[2] = test system: onychomycosis of the toenail; test: Phase II clinical study: overall clinical efficacy; format: in vivo, human
Experimental: as §1
The efficacy endpoints were: (1) overall clinical efficacy; (2) changes over time in efficacy; (3) confirmation of elements of dermatophytes by direct microscopy; and (4) results of identification of dermatophytes by the polymerase chain reaction (PCR) method.
Overall clinical efficacy (cure rate and response rate) at Weeks 48 and 24 after the study treatment initiation for the efficacy analysis population (per protocol set, PPS) are presented in Tables 1 and 2 below. Overall clinical efficacy (cure rate and response rate) at Weeks 48 and 24 after the study treatment initiation for the full analysis set (FAS) are presented in Tables 3 and 4 below.

[3] = 100 mg once daily, Week 24, FAS
[4] = 100 mg once daily, Week 24, PPS
[5] = 100 mg once daily, Week 48, FAS
[6] = 100 mg once daily, Week 48, PPS
[7] = 200 mg pulse treatment, Week 24, FAS
[8] = 200 mg pulse treatment, Week 24, PPS
[9] = 200 mg pulse treatment, Week 48, FAS
[10] = 200 mg pulse treatment, Week 48, PPS
[11] = 400 mg pulse treatment, Week 24, FAS
[12] = 400 mg pulse treatment, Week 24, PPS
[13] = 400 mg pulse treatment, Week 48, FAS
[14] = 400 mg pulse treatment, Week 48, PPS

C[C@@H](c1nc(-c2ccc(C#N)cc2)cs1)[C@@](Cn1cncn1)(OCOP(=O)(O)O)c1ccc(F)cc1F [fosravuconazole, 4-[2-[(1R,2R)-2-(2,4-difluorophenyl)-1-methyl-2-[(phosphonooxy)methoxy]-3-(1H-1,2,4-triazol-1-yl)propyl]-4-thiazolyl]benzo-nitrile]
AEs resulting in discontinuation of the study treatment ([1]; 100 mg (once daily dose) group): 1 subject | AST or ALT elevated to Grade 2 after the start of study treatment ([1]; 100 mg (once daily dose) group): 2 subjects | Moderate AEs ([1]; 100 mg (once daily dose) group): 3 subjects | incidence of AEs ([1]; 100 mg (once daily dose) group): 89.7% | new AE derived from fungal infection ([1]; 100 mg (once daily dose) group): no new AE derived from fungal infection | AST or ALT elevated to Grade 2 after the start of study treatment ([1]; 200 mg (pulse treatment) group): 1 subject | Moderate AEs ([1]; 200 mg (pulse treatment) group): 12 subjects | incidence of AEs ([1]; 200 mg (pulse treatment) group): 64.5% | AEs resulting in discontinuation of the study treatment ([1]; 400 mg (pulse treatment) group): 4 subjects | AST or ALT elevated to Grade 2 after the start of study treatment ([1]; 400 mg (pulse treatment) group): 1 subject | Moderate AEs ([1]; 400 mg (pulse treatment) group): 12 subjects | incidence of AEs ([1]; 400 mg (pulse treatment) group): 85.3% | tinea pedis ([1]; 400 mg (pulse treatment) group): 2 subjects | tolerability ([1]; all dosing groups): well-tolerated | death or other serious AEs ([1]; any of the treatment groups): No death or other serious AEs occurred | AST or ALT elevated to Grade 2 after the start of study treatment ([1]; in total, all groups): 4 subjects | Cure rate and 95% CI [2, 3]: 0.0 (0.0, 13.2) % | Cured [2, 3]: 0 | Failed [2, 3]: 0 | Improved [2, 3]: 6 | Markedly improved [2, 3]: 20 | Response rate and 95% CI [2, 3]: 76.9 (56.4, 91.0) % | Slightly improved [2, 3]: 0 | Cure rate and 95% CI [2, 4]: 0.0 (0.0, 13.7) % | Cured [2, 4]: 0 | Failed [2, 4]: 0 | Improved [2, 4]: 6 | Markedly improved [2, 4]: 19 | Response rate and 95% CI [2, 4]: 76.0 (54.9, 90.6) % | Slightly improved [2, 4]: 0 | Cure rate and 95% CI [2, 5]: 38.5 (20.3, 59.4) % | Cured [2, 5]: 10 | Failed [2, 5]: 0 | Improved [2, 5]: 1 | Markedly improved [2, 5]: 15 | Response rate and 95% CI [2, 5]: 96.2 (80.4, 99.9) % | Slightly improved [2, 5]: 0 | Cure rate and 95% CI [2, 6]: 40.0% and 40.0 (21.2, 61.3) % | Cured [2, 6]: 10 | Failed [2, 6]: 0 | Improved [2, 6]: 1 | Markedly improved [2, 6]: 14 | Response rate and 95% CI [2, 6]: 96.0% and 96.0 (79.7, 99.8) % | Slightly improved [2, 6]: 0 | Cure rate and 95% CI [2, 7]: 3.6 (0.1, 18.3) % | Cured [2, 7]: 1 | Failed [2, 7]: 0 | Improved [2, 7]: 10 | Markedly improved [2, 7]: 16 | Response rate and 95% CI [2, 7]: 60.7 (40.6, 78.4) % | Slightly improved [2, 7]: 1 | Cure rate and 95% CI [2, 8]: 4.0 (0.2, 20.3) % | Cured [2, 8]: 1 | Failed [2, 8]: 0 | Improved [2, 8]: 9 | Markedly improved [2, 8]: 14 | Response rate and 95% CI [2, 8]: 60.0 (38.7, 78.8) % | Slightly improved [2, 8]: 1 | Cure rate and 95% CI [2, 9]: 32.0 (15.0, 53.5) % | Cured [2, 9]: 8 | Failed [2, 9]: 0 | Improved [2, 9]: 4 | Markedly improved [2, 9]: 13 | Response rate and 95% CI [2, 9]: 84.0 (64.0, 95.4) % | Slightly improved [2, 9]: 0 | Cure rate and 95% CI [2, 10]: 27.3% and 27.3 (10.8, 50.2) % | Cured [2, 10]: 6 | Failed [2, 10]: 0 | Improved [2, 10]: 4 | Markedly improved [2, 10]: 12 | Response rate and 95% CI [2, 10]: 81.8% and 81.8 (59.8, 94.8) % | Slightly improved [2, 10]: 0 | Cure rate and 95% CI [2, 11]: 0.0 (0.0, 11.2) % | Cured [2, 11]: 0 | Failed [2, 11]: 0 | Improved [2, 11]: 11 | Markedly improved [2, 11]: 17 | Response rate and 95% CI [2, 11]: 54.8 (36.1, 72.6) % | Slightly improved [2, 11]: 3 | Cure rate and 95% CI [2, 12]: 0.0 (0.0, 11.2) % | Cured [2, 12]: 0 | Failed [2, 12]: 0 | Improved [2, 12]: 11 | Markedly improved [2, 12]: 17 | Response rate and 95% CI [2, 12]: 54.8 (36.1, 72.6) % | Slightly improved [2, 12]: 3 | Cure rate and 95% CI [2, 13]: 40.7 (22.4, 61.2) % | Cured [2, 13]: 11 | Failed [2, 13]: 0 | Improved [2, 13]: 4 | Markedly improved [2, 13]: 12 | Response rate and 95% CI [2, 13]: 85.2 (66.3, 95.8) % | Slightly improved [2, 13]: 0 | Cure rate and 95% CI [2, 14]: 40.7% and 40.7 (22.4, 61.2) % | Cured [2, 14]: 11 | Failed [2, 14]: 0 | Improved [2, 14]: 4 | Markedly improved [2, 14]: 12 | Response rate and 95% CI [2, 14]: 85.2% and 85.2 (66.3, 95.8) % | Slightly improved [2, 14]: 0
